In patent US20090270390A1, “PYRIMIDINE DERIVATIVES” (AstraZeneca, priority 2006, published 2009):

How the values were obtained:
[1] = system: phosphorylation of Serine 473 in Akt in MDA-MB-468 human breast adenocarcinoma cell line; assay: In vitro phospho-Ser473 Akt assay, Test (c); format: cell-based; conditions: MDA-MB-468 cells, read-out: IC50 (inhibition of Serine 473 phosphorylation in Akt)
Experimental: This assay determines the ability of test compounds to inhibit phosphorylation of Serine 473 in Akt as assessed using Acumen Explorer technology (TTP LabTech Limited, Royston, Herts, SG8 6EE, UK), a plate reader that can be used to rapidly quantitate features of images generated by laser-scanning.
A MDA-MB-468 human breast adenocarcinoma cell line (LGC Promochem, Teddington, Middlesex, UK, Catalogue No. HTB-132) was routinely maintained at 37° C. with 5% CO2 up to a confluency of 70-90% in DMEM containing 10% FCS and 1% L-glutamine.
For the assay, the cells were detached from the culture flask using ‘Accutase’ (Innovative Cell Technologies Inc., San Diego, Calif., USA; Catalogue No. AT104) using standard tissue culture methods and resuspended in media to give 5.5×10^4 cells per ml. Aliquots (90 μl) were seeded into each of the inner 60 wells of a black ‘Costar’ 96-well plate (Corning Inc., NY, USA; Catalogue No. 3904) to give a density of ˜5000 cells per well. Aliquots (90 μl) of culture media were placed in the outer wells to prevent edge effects. [An alternative cell handling procedure involved the maintenance of the cells in a ‘SelecT’ robotic device (The Automation Partnership, Royston, Herts SG8 5WY, UK). Cells were resuspended in media to give 5×10^4 cells per ml. Aliquots (100 μl) were seeded into the wells of a black ‘Costar’ 96-well plate.] […]

p110α Type Ia human PI3K = molecular target: T1, p110α Type Ia human PI3K (Homo sapiens, UniProt P42336); assay: In vitro PI3K enzyme assay (AlphaScreen), Test (a); format: biochemical; conditions: read-out: IC50 versus p110α Type Ia human PI3K
T1 construct: full length DNA of each of the p110α, p110β and p110δ Type Ia human PI3K p110 isoforms; 6-His; made in house; Grp1 PH domain made in E. coli
From the text: The assay used AlphaScreen technology (Gray et al., Analytical Biochemistry, 2003, 313: 234-245) to determine the ability of test compounds to inhibit phosphorylation by recombinant Type I PI3K enzymes of the lipid PI(4,5)P2.
DNA fragments encoding human PI3K catalytic and regulatory subunits were isolated from cDNA libraries using standard molecular biology and PCR cloning techniques. The selected DNA fragments were used to generate baculovirus expression vectors. In particular, full length DNA of each of the p110α, p110β and p110δ Type Ia human PI3K p110 isoforms (EMBL Accession Nos. HSU79143, S67334, Y10055 for p110α, p110β and p110δ respectively) were sub-cloned into a pDEST10 vector (Invitrogen Limited, Fountain Drive, Paisley, UK). The vector is a Gateway-adapted version of Fastbac 1 containing a 6-His epitope tag. […]
Biotinylated-DiC8-PI(3,4,5)P3 (50 nM; Cell Signals Inc., Catalogue No. 107), recombinant purified GST-Grp1 PH protein (2.5 nM) and AlphaScreen Anti-GST donor and acceptor beads (100 ng; Packard Bioscience Limited, Station Road, Pangbourne, Berkshire, UK, Catalogue No. 6760603M) were added and the assay plates were left for about 5 to 20 hours at room temperature in the dark. The resultant signals arising from laser light excitation at 680 nm were read using a Packard AlphaQuest instrument. […]

T1 sequence (P42336 whole entry, the tested form may be a part, canonical isoform): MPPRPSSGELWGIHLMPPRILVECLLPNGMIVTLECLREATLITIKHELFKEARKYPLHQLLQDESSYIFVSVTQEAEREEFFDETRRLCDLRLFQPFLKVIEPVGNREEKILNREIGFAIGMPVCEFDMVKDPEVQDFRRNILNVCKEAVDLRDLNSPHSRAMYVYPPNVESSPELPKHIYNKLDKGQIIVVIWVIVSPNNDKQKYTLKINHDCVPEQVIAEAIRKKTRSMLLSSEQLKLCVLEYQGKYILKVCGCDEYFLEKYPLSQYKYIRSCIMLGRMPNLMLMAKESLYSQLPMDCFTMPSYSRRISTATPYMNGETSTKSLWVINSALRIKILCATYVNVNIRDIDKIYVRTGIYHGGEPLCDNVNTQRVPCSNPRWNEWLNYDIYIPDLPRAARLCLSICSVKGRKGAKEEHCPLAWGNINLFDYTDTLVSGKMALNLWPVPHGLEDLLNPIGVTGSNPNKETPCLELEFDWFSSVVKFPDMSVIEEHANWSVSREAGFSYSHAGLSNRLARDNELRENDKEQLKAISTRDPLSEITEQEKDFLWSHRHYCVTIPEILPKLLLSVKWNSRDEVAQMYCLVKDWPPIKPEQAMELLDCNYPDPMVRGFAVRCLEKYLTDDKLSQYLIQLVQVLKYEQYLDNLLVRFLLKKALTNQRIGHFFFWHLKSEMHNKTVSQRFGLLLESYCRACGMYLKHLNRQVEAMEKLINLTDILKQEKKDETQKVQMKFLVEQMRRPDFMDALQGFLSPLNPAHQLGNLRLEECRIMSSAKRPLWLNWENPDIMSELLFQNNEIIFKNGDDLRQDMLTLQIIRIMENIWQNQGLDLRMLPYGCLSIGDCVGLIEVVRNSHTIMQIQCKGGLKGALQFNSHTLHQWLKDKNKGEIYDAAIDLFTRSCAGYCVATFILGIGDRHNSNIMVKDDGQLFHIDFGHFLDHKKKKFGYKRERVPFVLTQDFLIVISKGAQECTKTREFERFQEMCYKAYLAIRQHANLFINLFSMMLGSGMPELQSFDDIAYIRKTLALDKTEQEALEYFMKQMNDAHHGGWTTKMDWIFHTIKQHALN
T1 sequence (P27986 whole entry partner, the tested form may be a part, canonical isoform): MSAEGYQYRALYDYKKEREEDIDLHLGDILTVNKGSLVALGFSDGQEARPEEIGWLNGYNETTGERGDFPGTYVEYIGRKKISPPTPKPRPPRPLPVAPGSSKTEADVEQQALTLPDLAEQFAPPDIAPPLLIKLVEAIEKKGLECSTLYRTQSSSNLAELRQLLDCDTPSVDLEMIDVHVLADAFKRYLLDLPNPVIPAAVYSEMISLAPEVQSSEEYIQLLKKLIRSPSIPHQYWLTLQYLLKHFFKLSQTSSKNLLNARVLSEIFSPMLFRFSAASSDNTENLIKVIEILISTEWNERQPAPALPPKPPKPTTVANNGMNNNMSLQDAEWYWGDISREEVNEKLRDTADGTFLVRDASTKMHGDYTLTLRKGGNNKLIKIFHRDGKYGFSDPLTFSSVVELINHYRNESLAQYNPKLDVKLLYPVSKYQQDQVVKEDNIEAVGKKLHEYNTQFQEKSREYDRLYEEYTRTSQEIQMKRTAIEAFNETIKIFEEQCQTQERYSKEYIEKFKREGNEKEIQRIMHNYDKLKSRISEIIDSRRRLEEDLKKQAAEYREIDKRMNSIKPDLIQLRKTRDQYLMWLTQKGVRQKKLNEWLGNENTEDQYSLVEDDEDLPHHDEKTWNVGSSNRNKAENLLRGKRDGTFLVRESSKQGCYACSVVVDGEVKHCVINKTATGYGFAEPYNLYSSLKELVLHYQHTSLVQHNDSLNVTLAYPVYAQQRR

IC50 [1]: ~0.01 µM
IC50 (p110α Type Ia human PI3K): ~0.1 µM
Compound: NCC(=O)N1CCN(c2cc(N3CCOCC3)nc(-n3c(C(F)F)nc4ccccc43)n2)CC1 [Example 1, 2-(2-difluoromethylbenzimidazol-1-yl)-4-(4-glycylpiperazin-1-yl)-6-morpholinopyrimidine]
